{
  "source": "patent US10222368B2",
  "about": "(priority 2012, dated 2019)",
  "key": {"[1]": {"tested_on": "cytokines IL-6, TNFα and IL-1β", "test": "ICV Aβ42 infusion mouse model, cytokine fluorescence ELISA", "format": "in vivo", "details": "ICV Aβ42-infused mice; 10 mg/kg C0105 i.p.", "source_text": "FIG. 6 illustrates that Compound C0105 treatment of mice nearly abolishes Aβ42-induced cytokine production. […] Compound C0105 almost abolished the production of these 3 cytokines. n=7 or n=8."}, "[2]": {"target": "T1, TLR4-FLNA complexes (Mus musculus, UniProt Q8BTM8)", "T1 construct": "measuring α7nAChR and TLR4 contents in anti-FLNA immunoprecipitate by Western blotting; endogenous in cells; host or cells: trunk-blood lymphocytes of E129 and tau/APP695sw/PS1 transgenic mice", "test": "AD transgenic mouse oral treatment, lymphocyte anti-FLNA immunoprecipitation / Western blot", "format": "in vivo", "details": "30 mg/kg C0105 orally for 2 months; AD transgenic mice from age 4 and 8 months", "protocol": "(§1) FIG. 19, in five panels as FIG. 19A and FIG. 19B, FIG. 19C, FIG. 19D and FIG. 19E, illustrate the effects of oral administration of 30 mg/kg of Compound C0105 for a period of two months to E129 mice and AD transgenic (tau/APP695sw(-9E0/PS1) mice beginning at the ages of 4 and 8 months. Mice were sacrificed, and their brains extracted/dissected to confirm pathologies. Trunk blood was collected and lymphocyte lysate preparations were analyzed for levels of α7nAChR and FLNA as well as TLR4 and FLNA by measuring α7nAChR and TLR4 contents in anti-FLNA immunoprecipitates by Western blotting and visualization with FITC. Data are expressed as the ratios of optical intensities of α7nAChR to FLNA (FIGS. 19B and 19C) and TLR4 to FLNA (FIGS. 19D and 19E). n=5. […]\n(§2) To assess the C0105's AD treatment efficacy, E129 mice and AD transgenic (tau/APP695sw(-9E)/PS1) mice at age of 4-months (minimal plaque pathologies) and 8-months (established plaque pathologies) were treated orally with 30 mg/kg of C0105 for 2 months. […] The protein bands were detected using a chemiluminescent method, visualized by exposure to x-ray film and quantified by densitometric scan.\n(§3) The data were expressed as the ratios of optical intensities of α7nAChR to FLNA and TLR4 to FLNA. […]"}, "[3]": {"target": "T2, α7nAChR-FLNA complexes (Mus musculus, UniProt Q8BTM8)", "T2 construct": "measuring α7nAChR and TLR4 contents in anti-FLNA immunoprecipitate by Western blotting; endogenous in cells; host or cells: trunk-blood lymphocytes of E129 and tau/APP695sw/PS1 transgenic mice", "test": "AD transgenic mouse oral treatment, lymphocyte anti-FLNA immunoprecipitation / Western blot", "format": "in vivo", "details": "30 mg/kg C0105 orally for 2 months; AD transgenic mice from age 4 and 8 months", "protocol": "as §1, §2, §3"}, "[4]": {"target": "T3, α7nAChR/FLNA complexes (Homo sapiens, UniProt P21333)", "T3 construct": "To determine the levels of FLNA-α7nAChR, FLNA-TLR4 and α7nAChR-Aβ42 complexes in the lymphocytes; endogenous in cells; host or cells: lymphocytes from venous blood of AD patients and control subjects (ex vivo)", "T3 sequence (P21333 2-2647 limits assumed, one chain of several)": "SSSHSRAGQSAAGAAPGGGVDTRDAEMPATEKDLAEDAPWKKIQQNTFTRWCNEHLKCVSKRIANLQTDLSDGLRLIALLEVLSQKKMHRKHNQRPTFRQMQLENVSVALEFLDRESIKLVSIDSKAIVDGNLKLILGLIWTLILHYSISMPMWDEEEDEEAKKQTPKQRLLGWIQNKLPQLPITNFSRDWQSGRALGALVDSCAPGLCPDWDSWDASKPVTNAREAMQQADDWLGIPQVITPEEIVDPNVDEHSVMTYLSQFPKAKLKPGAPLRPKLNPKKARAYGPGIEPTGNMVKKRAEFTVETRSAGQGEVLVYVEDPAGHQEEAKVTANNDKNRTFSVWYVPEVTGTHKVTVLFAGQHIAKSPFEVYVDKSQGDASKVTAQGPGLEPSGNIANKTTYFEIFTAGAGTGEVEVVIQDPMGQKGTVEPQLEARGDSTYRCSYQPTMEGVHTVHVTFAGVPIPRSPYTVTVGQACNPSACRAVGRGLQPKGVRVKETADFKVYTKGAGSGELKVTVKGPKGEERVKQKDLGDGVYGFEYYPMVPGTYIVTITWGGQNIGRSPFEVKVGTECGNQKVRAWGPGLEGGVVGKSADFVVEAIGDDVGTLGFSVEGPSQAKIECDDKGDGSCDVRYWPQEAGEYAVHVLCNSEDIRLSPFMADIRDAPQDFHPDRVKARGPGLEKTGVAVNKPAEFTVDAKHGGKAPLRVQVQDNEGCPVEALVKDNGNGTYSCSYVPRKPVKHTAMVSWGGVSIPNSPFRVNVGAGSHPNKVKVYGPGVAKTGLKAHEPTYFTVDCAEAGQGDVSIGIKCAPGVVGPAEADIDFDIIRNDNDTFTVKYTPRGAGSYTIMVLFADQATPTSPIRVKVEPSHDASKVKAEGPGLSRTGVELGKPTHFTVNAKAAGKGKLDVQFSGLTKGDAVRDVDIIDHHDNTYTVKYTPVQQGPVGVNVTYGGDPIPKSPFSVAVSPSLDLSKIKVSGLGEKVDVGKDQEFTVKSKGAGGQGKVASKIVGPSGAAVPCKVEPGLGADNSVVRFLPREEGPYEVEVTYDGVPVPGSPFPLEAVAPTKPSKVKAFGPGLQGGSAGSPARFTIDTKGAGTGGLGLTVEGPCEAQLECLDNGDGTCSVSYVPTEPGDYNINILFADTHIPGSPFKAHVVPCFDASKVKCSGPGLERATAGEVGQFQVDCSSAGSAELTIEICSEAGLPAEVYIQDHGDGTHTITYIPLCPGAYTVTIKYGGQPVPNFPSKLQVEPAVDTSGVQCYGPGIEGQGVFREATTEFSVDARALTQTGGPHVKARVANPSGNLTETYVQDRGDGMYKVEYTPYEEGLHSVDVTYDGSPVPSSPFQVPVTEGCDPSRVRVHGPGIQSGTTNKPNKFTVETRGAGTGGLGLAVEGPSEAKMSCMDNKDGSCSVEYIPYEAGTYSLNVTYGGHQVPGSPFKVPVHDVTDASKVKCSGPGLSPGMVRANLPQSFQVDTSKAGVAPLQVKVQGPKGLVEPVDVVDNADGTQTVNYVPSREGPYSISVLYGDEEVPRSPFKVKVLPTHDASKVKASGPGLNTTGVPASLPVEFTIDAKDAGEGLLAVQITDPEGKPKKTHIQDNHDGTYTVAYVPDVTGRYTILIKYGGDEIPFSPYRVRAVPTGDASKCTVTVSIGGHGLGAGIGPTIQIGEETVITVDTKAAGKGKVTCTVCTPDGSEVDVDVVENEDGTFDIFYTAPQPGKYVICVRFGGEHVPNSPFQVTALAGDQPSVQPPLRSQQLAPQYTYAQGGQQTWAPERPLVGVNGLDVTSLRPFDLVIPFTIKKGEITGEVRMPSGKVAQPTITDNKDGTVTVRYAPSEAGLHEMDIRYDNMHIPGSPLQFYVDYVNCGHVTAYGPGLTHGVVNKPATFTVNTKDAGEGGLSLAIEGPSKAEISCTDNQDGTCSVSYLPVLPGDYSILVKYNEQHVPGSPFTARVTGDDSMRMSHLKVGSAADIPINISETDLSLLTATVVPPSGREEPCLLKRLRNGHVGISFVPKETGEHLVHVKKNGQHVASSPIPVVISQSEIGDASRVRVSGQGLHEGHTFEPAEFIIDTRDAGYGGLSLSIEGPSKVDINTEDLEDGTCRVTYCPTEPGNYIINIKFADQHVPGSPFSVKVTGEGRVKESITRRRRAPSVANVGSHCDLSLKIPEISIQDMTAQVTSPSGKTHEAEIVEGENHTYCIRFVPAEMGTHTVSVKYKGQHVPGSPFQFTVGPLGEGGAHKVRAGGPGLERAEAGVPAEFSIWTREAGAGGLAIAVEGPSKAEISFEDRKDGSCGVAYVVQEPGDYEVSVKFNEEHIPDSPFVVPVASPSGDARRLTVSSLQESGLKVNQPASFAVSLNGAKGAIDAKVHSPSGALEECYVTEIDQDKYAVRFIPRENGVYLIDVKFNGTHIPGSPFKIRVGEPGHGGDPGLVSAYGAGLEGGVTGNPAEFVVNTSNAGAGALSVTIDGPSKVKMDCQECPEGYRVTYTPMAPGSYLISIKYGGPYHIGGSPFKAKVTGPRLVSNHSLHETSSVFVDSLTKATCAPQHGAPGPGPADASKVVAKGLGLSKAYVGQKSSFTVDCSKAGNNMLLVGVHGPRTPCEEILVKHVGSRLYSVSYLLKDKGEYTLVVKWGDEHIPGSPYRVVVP", "test": "Protein A and Protein G capture plate assay in lymphocytes", "format": "cell-based", "details": "1 nM", "protocol": "(§4) Each sample was assessed in duplicate."}, "[5]": {"tested_on": "α7nAChR/Aβ42 complexes", "test": "Protein A and Protein G capture plate assay in lymphocytes", "format": "cell-based, human", "details": "1 nM", "protocol": "as §4"}, "[6]": {"target": "T4, α7nAChR-FLNA association (Rattus norvegicus, UniProt A0A8I5ZV49)", "T4 construct": "from tissue; host or cells: rat frontal cortical synaptosomes", "test": "Rat frontal cortical synaptosomes treated with Aβ42, anti-FLNA immunoprecipitation / Western blot", "format": "cell-based", "details": "1 or 10 nM compound, simultaneously or 10 min prior to 0.1 μM Aβ42", "source_text": "The α7nAChR-FLNA complexes in the solubilized synaptosomes were immunoprecipitated with immobilized anti-FLNA and the α7nAChR and FLNA levels in the anti-FLNA immunoprecipitates determined by Western blotting (FIG. 14A) and quantified by densitometry for illustrative compounds (FIG. 14B). n=3. […] The letter designation “M” that accompanies many of the “C-series” compounds is omitted from FIG. 14, the remaining figures and most discussions of the figures and compounds hereinafter for ease in expression. Structural formulas of the compounds used in this and the other figures are provided hereinafter.\nThe complexes in the solubilized synaptosomes, and α7nAChR, TLR4 and FLNA levels in the anti-FLNA immunoprecipitates were determined by Western blotting (FIG. 15A) in which numerals outside of and to the left of the blots are as discussed before. Amounts present in the blots were quantified by densitometry (FIG. 15B). […] Structural formulas of the compounds used in this and the other figures are provided hereinafter."}, "[7]": {"target": "TLR4/FLNA complexes (Homo sapiens, UniProt P21333)", "sequence (P21333 2-2647 limits assumed, one chain of several)": "as above", "test": "Protein A and Protein G capture plate assay in lymphocytes", "details": "1 nM"}, "[8]": {"target": "FLNA association with TLR4 (Mus musculus, UniProt Q8BTM8)", "test": "ICV Aβ42 infusion mouse model, synaptosome co-immunoprecipitation", "details": "10 mg/kg C0105 i.p. twice daily, 2 weeks; prefrontal cortex and hippocampus"}},
  "data": [
    {"smiles": "CN1CCC2(CC1)NCC(=O)N2Cc1ccccc1", "note": "[Compound C0105]", "values": [
      {"measurement": "Effect on Aβ42-induced IL-6 production (in words)", "setting": "[1]", "result": "completely abolished"},
      {"measurement": "Suppression of IL-1β level", "setting": "[1]", "result": 80, "unit": "%"},
      {"measurement": "Suppression of TNF-α level", "setting": "[1]", "result": 86, "unit": "%"},
      {"measurement": "Effect on elevated TLR4-FLNA complexes in lymphocytes (in words)", "setting": "[2]", "result": "robustly normalized"},
      {"measurement": "Effect on elevated α7nAChR-FLNA complexes in lymphocytes (in words)", "setting": "[3]", "result": "robustly normalized"},
      {"measurement": "Decrease in amount of α7nAChR FLNA complexes", "setting": "[4]; AD lymphocytes", "result": "approximately 50%"},
      {"measurement": "Response of α7nAChR/FLNA complexes (in words)", "setting": "[4]; YCI lymphocytes", "result": "essentially non-responsive"},
      {"measurement": "Decrease in amount of α7nAChR/Aβ42 complexes", "setting": "[5]; AD lymphocytes", "result": "approximately 50%"},
      {"measurement": "Response of α7nAChR/Aβ42 complexes (in words)", "setting": "[5]; YCI lymphocytes", "result": "essentially non-responsive"},
      {"measurement": "Effect on Aβ42-induced α7nAChR-FLNA association (in words)", "setting": "[6]", "result": "reduce α7nAChR-FLNA association"},
      {"measurement": "Decrease in amount of TLR4 FLNA complexes", "setting": "[7]; AD lymphocytes", "result": "approximately 50%"},
      {"measurement": "Response of TLR4/FLNA complexes (in words)", "setting": "[7]; YCI lymphocytes", "result": "essentially non-responsive"},
      {"measurement": "Effect on Aβ42-induced FLNA association with TLR4 (in words)", "setting": "[8]", "result": "reduced Aβ42-induced increases in FLNA associations"}
    ]}
  ]
}
